Experimental data reported in ChEMBL document CHEMBL3861944 (Medchemcomm, 2016).

Legend:
[1] = Cell cycle arrest in human THP1 cells assessed as accumulation at G2/M phase at 0.75 uM after 24 hrs by flow cytometric method (reference value: 32 +/- 1%); format: functional, cell-based; settings: THP-1
[2] = tested on: THP-1; assay: Pro-apoptotic activity in human THP1 cells assessed as necrotic cells at 1 uM after 24 hrs by annexin V/propidium iodide staining-based flow cytometric method relative to control; format: functional
[3] = Cell cycle arrest in human THP1 cells assessed as accumulation at G2/M phase at 10 uM after 24 hrs by flow cytometric method (reference value: 32 +/- 1%); format: functional, cell-based; settings: THP-1
[4] = tested on: ASPC1; assay: Pro-apoptotic activity in human AsPC1 cells assessed as necrotic cells at 1 uM after 24 hrs by annexin V/propidium iodide staining-based flow cytometric method (reference value: 2.1 +/- 0.4%); format: functional
[5] = Cell cycle arrest in human THP1 cells assessed as decrease in cell levels at G2/M phase after 24 hrs by flow cytometric method; format: functional, cell-based; settings: THP-1
[6] = tested on: THP-1; assay: Pro-apoptotic activity in human THP1 cells assessed as early apoptotic cells at 0.5 uM after 24 hrs by annexin V/propidium iodide staining-based flow cytometric method (reference value: 0.4 +/- 0.1%); format: functional
[7] = Cell cycle arrest in human THP1 cells assessed as accumulation at G0/G1 phase at 1 uM after 24 hrs by flow cytometric method (reference value: 51 +/- 6%); format: functional, cell-based; settings: THP-1
[8] = tested on: THP-1; assay: Pro-apoptotic activity in human THP1 cells assessed as late apoptotic cells at 30 uM after 24 hrs by annexin V/propidium iodide staining-based flow cytometric method (reference value: 0.4 +/- 0.1%); format: functional
[9] = Cell cycle arrest in human THP1 cells assessed as accumulation at G0/G1 phase at 30 uM after 24 hrs by flow cytometric method (reference value: 51 +/- 6%); format: functional, cell-based; settings: THP-1
[10] = Cell cycle arrest in human AsPC1 cells assessed as accumulation at G2/M phase at 30 uM after 24 hrs by flow cytometric method (reference value: 29 +/- 5%); format: functional, cell-based
[11] = Cell cycle arrest in human AsPC1 cells assessed as accumulation at S phase at 30 uM after 24 hrs by flow cytometric method (reference value: 23 +/- 3%); format: functional, cell-based
[12] = Cell cycle arrest in human AsPC1 cells assessed as accumulation at G0/G1 phase at 75 uM after 24 hrs by flow cytometric method (reference value: 48 +/- 7%); format: functional, cell-based
[13] = tested on: ASPC1; assay: Induction of pro-differentiation of human AsPC1 cells assessed as CD44 expression at 1 uM after 3 days by immunostaining-based micro-capillary flow cytometric method (reference value: 87 +/- 1%); format: functional
[14] = Cell cycle arrest in human AsPC1 cells assessed as accumulation at G2/M phase at 1 uM after 24 hrs by flow cytometric method (reference value: 29 +/- 5%); format: functional, cell-based
[15] = tested on: THP-1; assay: Pro-apoptotic activity in human THP1 cells assessed as late apoptotic cells at 3 uM after 24 hrs by annexin V/propidium iodide staining-based flow cytometric method (reference value: 0.4 +/- 0.1%); format: functional
[16] = tested on: ASPC1; assay: Pro-apoptotic activity in human AsPC1 cells after 24 hrs by annexin V/propidium iodide staining-based flow cytometric method; format: functional; settings: ASPC1, 24 h, read-out: ED50 (the source's name)
[17] = tested on: ASPC1; assay: Pro-apoptotic activity in human AsPC1 cells assessed as early apoptotic cells at 100 uM after 24 hrs by annexin V/propidium iodide staining-based flow cytometric method (reference value: 0.8 +/- 0.1%); format: functional
[18] = Cell cycle arrest in human THP1 cells assessed as accumulation at G2/M phase at 1 uM after 24 hrs by flow cytometric method (reference value: 32 +/- 1%); format: functional, cell-based; settings: THP-1
[19] = Cell cycle arrest in human AsPC1 cells assessed as accumulation at S phase at 10 uM after 24 hrs by flow cytometric method (reference value: 23 +/- 3%); format: functional, cell-based
[20] = Cell cycle arrest in human AsPC1 cells assessed as accumulation at G0/G1 phase at 10 uM after 24 hrs by flow cytometric method (reference value: 48 +/- 7%); format: functional, cell-based
[21] = tested on: THP-1; assay: Pro-apoptotic activity in human THP1 cells assessed as early apoptotic cells at 0.75 uM after 24 hrs by annexin V/propidium iodide staining-based flow cytometric method (reference value: 0.4 +/- 0.1%); format: functional
[22] = Antioxidant activity assessed as DPPH free radical scavenging activity incubated for 30 mins in dark; format: functional
[23] = tested on: THP-1; assay: Pro-apoptotic activity in human THP1 cells assessed as early apoptotic cells at 1 uM after 24 hrs by annexin V/propidium iodide staining-based flow cytometric method (reference value: 0.4 +/- 0.1%); format: functional
[24] = Cell cycle arrest in human THP1 cells assessed as accumulation at G0/G1 phase at 0.75 uM after 24 hrs by flow cytometric method (reference value: 51 +/- 6%); format: functional, cell-based; settings: THP-1
[25] = tested on: ASPC1; assay: Pro-apoptotic activity in human AsPC1 cells assessed as early apoptotic cells at 50 uM after 24 hrs by annexin V/propidium iodide staining-based flow cytometric method (reference value: 0.8 +/- 0.1%); format: functional
[26] = Cell cycle arrest in human THP1 cells assessed as accumulation at S phase at 30 uM after 24 hrs by flow cytometric method (reference value: 16 +/- 2%); format: functional, cell-based; settings: THP-1
[27] = tested on: THP-1; assay: Pro-apoptotic activity in human THP1 cells assessed as early apoptotic cells at 30 uM after 24 hrs by annexin V/propidium iodide staining-based flow cytometric method (reference value: 0.4 +/- 0.1%); format: functional
[28] = Cell cycle arrest in human THP1 cells assessed as accumulation at S phase at 0.75 uM after 24 hrs by flow cytometric method (reference value: 16 +/- 2%); format: functional, cell-based; settings: THP-1
[29] = Cell cycle arrest in human THP1 cells assessed as accumulation at S phase at 10 uM after 24 hrs by flow cytometric method (reference value: 16 +/- 2%); format: functional, cell-based; settings: THP-1
[30] = tested on: ASPC1; assay: Pro-apoptotic activity in human AsPC1 cells assessed as necrotic cells at 30 uM after 24 hrs by annexin V/propidium iodide staining-based flow cytometric method (reference value: 2.1 +/- 0.4%); format: functional
[31] = Cell cycle arrest in human THP1 cells assessed as accumulation at S phase at 3 uM after 24 hrs by flow cytometric method (reference value: 16 +/- 2%); format: functional, cell-based; settings: THP-1
[32] = tested on: THP-1; assay: Pro-apoptotic activity in human THP1 cells assessed as necrotic cells at 3 uM after 24 hrs by annexin V/propidium iodide staining-based flow cytometric method relative to control; format: functional
[33] = tested on: THP-1; assay: Pro-apoptotic activity in human THP1 cells assessed as late apoptotic cells at 0.5 uM after 24 hrs by annexin V/propidium iodide staining-based flow cytometric method (reference value: 0.4 +/- 0.1%); format: functional
[34] = Cell cycle arrest in human THP1 cells assessed as accumulation at S phase at 0.5 uM after 24 hrs by flow cytometric method (reference value: 16 +/- 2%); format: functional, cell-based; settings: THP-1
[35] = Cell cycle arrest in human AsPC1 cells assessed as accumulation at G0/G1 phase at 50 uM after 24 hrs by flow cytometric method (reference value: 48 +/- 7%); format: functional, cell-based
[36] = tested on: ASPC1; assay: Pro-apoptotic activity in human AsPC1 cells assessed as necrotic cells at 50 uM after 24 hrs by annexin V/propidium iodide staining-based flow cytometric method (reference value: 2.1 +/- 0.4%); format: functional

Structure (SMILES): NC(=[Se])N/N=C/c1cccc2cccnc12
- Activity [1]: 34%
- Activity [2]: 0.4%
- Activity [3]: 28%
- Activity [4]: 1.8%
- Activity [5]: Dose-dependent effect
- Activity [6]: 1.7%
- Activity [7]: 43%
- Activity [8]: 46%
- Activity [9]: 43%
- Activity [10]: 8.2%
- Activity [11]: 22.5%
- Activity [12]: 63.3%
- Activity [13]: 53%
- Activity [14]: 10.6%
- Activity [15]: 3%
- EC50 [16]: > 100 µM
- Activity [17]: 5.7%
- Activity [18]: 31%
- Activity [19]: 21.3%
- Activity [20]: 62%
- Activity [21]: 1.1%
- IC50 [22]: 12.5 µM
- Activity [23]: 1.5%
- Activity [24]: 44%
- Activity [25]: 0.4%
- Activity [26]: 32%
- Activity [27]: 8%
- Activity [28]: 21%
- Activity [29]: 27%
- Activity [30]: 1.9%
- Activity [31]: 27%
- Activity [32]: 0.4%
- Activity [33]: 2%
- Activity [34]: 22%
- Activity [35]: 65.4%
- Activity [36]: 1.7%
